Test results: patent US9725490B2, “ERAP1-derived peptide and use thereof” (TOKUSHIMA UNIVERSITY, priority 2011, dated 2017)

Experiments:
Type in all cases: cell-based, human
MCF-7 cells [1] = experiment: Cell cycle FACS analysis, MCF-7; settings: 10 μM ERAP1-peptide and/or 10 nM tamoxifen, 10 nM E2 24 hours
Experimental: FIG. 6-2 is a diagram illustrating that ERAP1-peptide treatment suppresses ERα-dependent cell proliferation of breast cancer cell lines. […] MCF-7 cells were treated with 10 μM ERAP1-peptide or 10 μM tamoxifen. Then, immediately, the cells were stimulated with 10 nM E2 for 24 hours. After the immobilization, the cells were stained with propidium iodide, and analyzed by flow cytometry.
FIG. 19 is a diagram illustrating the results of FACS analysis showing the effects of concomitant use of the ERAP1-peptide and tamoxifen on the cell cycle.
The cells were fixed with cold 70% ethanol, and stained with 20 μg/ml propidium iodide (Sigma) and 1 mg/ml ribonuclease A (Sigma), and analyzed with FACSCalibur (B D, Franklin Lakes, N.J., USA). The cell cycle was evaluated using CellQuest software (BD).
MCF-7 cells were treated with 10 μM ERAP1-peptide and/or 10 nM tamoxifen. Then, immediately, the cells were stimulated with 10 nM E2 for 24 hours. After the immobilization, the cells were stained with propidium iodide, and analyzed by flow cytometry.

ERAP1 expression = experiment: ERAP1 expression, quantitative RT-PCR and Western, MCF-7; settings: tamoxifen, 10 nM E2 24 hours
[2] = test system: Akt, MAPK and ERα phosphorylation; experiment: Phosphorylation of Akt, MAPK and ERα in tamoxifen-resistant MCF-7 cells; settings: Tam-R MCF-7, tamoxifen alone or tamoxifen and E2
Experimental: FIG. 14 is a diagram illustrating the suppression effect of the ERAP1-peptide on tamoxifen-resistant MCF-7 cells. […] The tamoxifen-resistant MCF-7 cells were treated with the ERAP1-peptide in each concentration (0, 5 and 10 μM). Then, immediately, the cells were stimulated with 10 nM E2 for 24 hours.
MCF-7 cells and tamoxifen-resistant MCF-7 cells were seeded in 1×10^5/well in DMEM/F12 culture medium containing phenol red on a 24-well plate and stood in a CO2 incubator for 24 hours. Then, the culture medium was exchanged with DMEM/F12 culture medium containing 10% FBS, 1% penicillin/streptomycin and 1 μM tamoxifen, and not containing phenol red, and the cells were further pre-cultured for 24 hours. The supernatant was removed, and then 180 μl of […] ERAP1-peptide was added (final concentration: 10 μM), and subsequently 20 μl of 100 nM E2 was added (final concentration: 10 nM), and the mixture was reacted for 24 hours. The reaction solution was removed, and then 100 μl of SDS-sample buffer was added and the cells were lysed. The cells were subjected to boiling treatment at 95° C. for 5 minutes, and subjected to polyacrylic amide electrophoresis. Phosphorylations of Akt and MAPK were detected with anti-phosphorylation Akt (Ser473) (587F11) and anti-phosphorylation p44/42 MAP Kinase (Thr202/Tyr204) antibodies, and phosphorylation of ERα was detected with anti-phosphorylation ERα (Ser104/106), anti-phosphorylation ERα (Ser118), anti-phosphorylation ERα (Ser167), anti-phosphorylation ERα (Ser305) and anti-phosphorylation ERα (Tyr537) antibodies.

MCF-7 cells [3] = experiment: MTT assay of tamoxifen with ERAP1 knockdown; settings: 10 μM tamoxifen, 96 hours, 1 μM E2
Experimental: (§1) FIG. 17 is a diagram illustrating the influence of ERAP1 knockdown on the suppression effect on proliferation of breast cancer cells by tamoxifen.
The inhibition effect of tamoxifen when ERAP1 was knocked down by siRNA method was evaluated with MTT assay. The sequences of si-ERAP1, and si-control (si-EGFP) and the method for the experiment were in accordance with the report of Kim et, al. (Cancer Science, 2009, 100; 1468-78) MCF-7 cells were seeded in […] on a 48-well plate, and stimulated with 1 μM E2, and after 24 hours, treated with si-ERAP1 or si-control. After 24 hours, the cells were treated with 10 μM tamoxifen and the number of living cells was evaluated with MTT assay after 96 hours.

ERE reporter activity = experiment: ERE-luciferase assay of tamoxifen with ERAP1 knockdown; settings: 10 μM tamoxifen, 96 hours, 1 μM E2
Experimental: as §1
In addition, the inhibition effect of tamoxifen when ERAP1 was knocked down by siRNA method was evaluated with ERE-luciferase assay. MCF-7 cells were seeded in 2×10^4/well on a 96-well plate, and were temporarily transfected with ERE-luciferase reporter. Then, the cells were stimulated with 1 μM E2, and after 24 hours, treated with si-ERAP1 or si-control. After 24 hours, the cells were treated with 10 μM tamoxifen and after 96 hours, ERE luciferase activity was measured.

CC/C(=C(\c1ccccc1)c1ccc(OCCN(C)C)cc1)c1ccccc1 [tamoxifen, reference compound]
cell cycle (MCF-7 cells [1]): increase of cells having stopped in the G1 phase | expression of ERAP1, mRNA level and protein level (ERAP1 expression): suppressed depending on the concentration of TAM | phosphorylations of Akt and MAPK [2]: accelerated phosphorylations of Akt and MAPK | cell proliferation, siERAP1 versus si-control (MCF-7 cells [3]): the cell proliferation was suppressed more | ERE reporter activity, siERAP1 versus si-control (ERE reporter activity): the reporter activity was suppressed more
